From article PMC9499324, “Glycyrrhizic Acid Derivatives Bearing Amino Acid Residues in the Carbohydrate Part as Dengue Virus E Protein Inhibitors: Synthesis and Antiviral Activity” (International Journal of Molecular Sciences, 2022) come the findings set out here.

Data set [1] concerns DENV2. The data set can be described thus: DENV2-induced cytopathic effect (CPE) reduction screening in Vero E6 cells. It is filed as cell-based, Dengue virus type 2. The conditions noted are these: for inhibition at 10 µM: Dengue virus. Here is the method: (§1) In the antiviral screening assay, each tested GL conjugate at 10 μM was used to survey the anti-DENV activity in Vero E6 cells using cytopathic effect (CPE) and infectivity reduction assays as described in our prior report. In CPE and infectivity reduction assays, Vero E6 cells were infected by DENV2 at an MOI of 0.005 and simultaneously treated 10 μM of indicated GL conjugate for 96 h, and then photographed by microscope for examining the levels of DENV2-induced CPE in infected cells treated with or without GL conjugate. Meanwhile, the cells were further performed using immunofluorescence assay (IFA) with anti-DENV NS4B antibodies (GeneTex, Inc., Hsinchu, Taiwan) and anti-rabbit IgG antibodies conjugated with AF555 (ThermoFisher, Waltham, MA, USA) plus DAPI (4′,6-diamidino-2-phenylindole) nuclear staining. Finally, the DENV-2 infectivity was measured according to the ratio of DENV NS4B-positive cells to DAPI-stained cells in the well of mock-treated or treated cells, as described in [45, 59, 60].

Data set [2] deals with DENV2. The data set can be described thus: DENV2 infectivity inhibition (anti-NS4B immunofluorescence) in Vero E6 cells. The conditions noted are these: for inhibition at 10 µM: Vero C1008, 10 μM compound, DENV2, Vero E6 cells, 96 h, read-out: Inhibition (%) at 10 μM (reduction of NS4B-positive cells). It is filed as cell-based, Dengue virus type 2.
Description: as §1, with “In the antiviral screening assay, each tested GL conjugate at 10 μM was used to survey the anti-DENV activity in Vero E6 cells using cytopathic effect (CPE) and infectivity reduction assays as described in our prior report.” left out, “[…],” for “Vero E6 cells were infected by DENV2 at an MOI of 0.005 and simultaneously treated 10 μM of indicated GL conjugate for 96 h,”

Another data set concerns DENV1. Briefly: DENV1 infectivity inhibition assay in Vero E6 cells. It is filed as cell-based. The conditions noted are these: Dengue virus, DENV1, Vero C1008, read-out: IC50 in the DENV1 infectivity inhibition assay. Here is the method: as §1
Supplemental Figure S25. Infectivity inhbition of DENV1 in Vero E6 cells by active GL conjugates. Cells were infected with DENV1 in the presence and absence of Compounds 3, 6, 11, and 21 at the concentrations of 0.1, 1, and 10 μM, respectively. Treated/infected Vero E6 cells were also analyzed using immunofluorescence staining with anti-DENV2 NS4B antibodies.
Residual infectivity was discovered by the ratio of DENV2 NS4B positive cells to total cells stained with DAPI, and relative inhibition activity was determined based on full infectivity with the subtraction of its residual infectivity.
(1 picture or pasted object on this page, not shown here)

A short description of data set [3]: MTT cytotoxicity assay in Vero E6 cells. The conditions noted are these: African green monkey. In kind it is cell-based. Here is the method: (§2) Vero E6 cells and A549 cells (5 × 10^3 cells/well) were treated with the serial dilution of GL conjugates at 0, 0.1, 10, 20, and 50 μM for examining the in vitro cytotoxicity of tested compounds. After 96-h incubation at 37 °C, the cells were incubated with MTT (3-(4,5-Dimethylthiazol-2-yl)-2,5-Diphenyltetrazolium Bromide) solution for another 4 h incubation, mixed with DMSO for 15 min after the removal of media, and then measured the absorbance at 570 nm. The viability (%) of treated cells was quantified according to the reduced ability of MTT. Finally, the concentration for reducing 50% cell viability (the 50% cytotoxic concentration, CC50) was determined by regression analysis of the concentration–response survival curve.
A general note: Tetrazolium dyes change colour on reduction, which living cells bring about.

The test system of data set [4] is DENV2. The data set can be described thus: Time-of-addition/compound removal assay with DENV2 in Vero E6 cells. It is filed as cell-based, Dengue virus type 2. The conditions noted are these: time-of-addition/removal, Vero E6 cells. Here is the method:
Figure 5 Time-of-addition and removal assay for analyzing antiviral action of compounds 3 (A), 6 (B), 11 (C), and 21 (D) in Vero E6 cells. In the attachment mode, cells were pre-cooled and incubated with fresh-prepared mixtures of active compounds with DENV2 at 4 °C for 1 h. After the removal of the mixtures, the cells were kept at 37 °C for 96 h (a cycle of viral replication) and then were performed by immunofluorescent assay plus DAPI staining. In entry and post-entry modes, cells were infected with DENV2 and treated with the compounds simultaneously (the entry stage) or 1-h post-infection (post-entry stage). After a 1 h incubation period, the virus/compound mixture was removed; the cell monolayer was washed with PBS and cultured for 96 h and then subjected to immunofluorescence staining and DAPI. Finally, the inhibition percentage of DENV2 infectivity was calculated as follows: 1-(percentage of NS4B positivity in treated cells/percentage of NS4B positivity in mock-treated cells). *** p < 0.001 compared with the other two antiviral action modes.
The time-of-addition assays consisted of three modes including attachment treatment/removal, entry-treatment/removal, and post-entry treatment/removal modes. In the attachment-treatment/removal mode, Vero E6 cells monolayer in 6-well plate was placed at 4 °C for 2 h and incubated with the fresh-prepared mixture of DENV-2 (MOI = 0.005) with the active compound at indicated concentrations for 2 h at 4 °C, and then washed with phosphate-buffered saline (PBS). In the entry-treatment/removal mode, Vero E6 cells were simultaneously treated with the active compound and infected DENV-2 (MOI = 0.005) in 6-well plates, incubated for 1 h at 37 °C, and then washed with PBS. In the post-entry treatment/removal mode, the cells were infected with DENV-2 for 1 h at 37 °C, treated with the active compounds at indicated concentrations for 1 h at 37 °C, respectively, and then washed by PBS. After active compound removal (washout), the cells were incubated at 37 °C for 96 h, and then were analyzed by immunofluorescent and DAPI staining assay for determining the residual DENV-2 infectivity, as described above. The inhibitory activity of the transient treatment by active compounds on attachment, entry, and post-entry stages of DENV replication in vitro was determined based on the residual infectivity.

The test system of data set [5] is DENV2. The data set can be described thus: DENV2 infectivity inhibition (anti-NS4B immunofluorescence) in A549 cells. It is filed as cell-based, Dengue virus type 2.
Data set [6] can be described thus: MTT cytotoxicity assay in A549 cells. In kind it is cell-based. The conditions noted are these: human. Here is the method: as §2
For the next data set, the system named is DENV1 and DENV2. Briefly: DENV infectivity inhibition, summary over DENV1 and DENV2 in Vero E6 and A549 cells. It is filed as cell-based, Dengue virus. The conditions noted are these: Dengue virus, range over DENV1 and DENV2, Vero E6 and A549 cells; read-out: IC50 in DENV infectivity (range over assays).
Description: as §1, with “In the antiviral screening assay, each tested GL conjugate at 10 μM was used to survey the anti-DENV activity in Vero E6 cells using cytopathic effect (CPE) and infectivity reduction assays as described in our prior report.” left out, “[…],” for “Vero E6 cells were infected by DENV2 at an MOI of 0.005 and simultaneously treated 10 μM of indicated GL conjugate for 96 h,”

[7] abbreviates: 10 μM compound, DENV2, Vero E6 cells, 96 h.
Setting [8] is: Vero C1008, 10 μM compound, DENV2, Vero E6 cells, 96 h, read-out: CPE Reduction at 10 μM.

In the case of `CC[C@H](C)[C@H](NC(=O)[C@H]1O[C@@H](O[C@H]2[C@H](OC3CC[C@@]4(C)C(CC[C@]5(C)C4C(=O)C=C4C6C[C@@](C)(C(=O)O)CC[C@]6(C)CC[C@]45C)C3(C)C)O[C@H](C(=O)N[C@H](C(=O)OC)[C@@H](C)CC)[C@@H](O)[C@@H]2O)[C@H](O)[C@@H](O)[C@@H]1O)C(=O)OC` (stereo partly drawn) [Compound 4, 3-O-{2-O-[N-(β-D-Glucopyranosyluronoyl)-L-isoleucinemethyl ester]-N-(β-D-glucopyranosyluronoyl)-L-isoleucinemethyl ester}-(3β, 20β)-11-oxo-30-norolean-12-ene-30-oic Acid], in the data set with DENV2 [1] (setting [7]), the “CPE Reduction at 10 μM” value was “−”.

With `CCOC(=O)[C@@H](Cc1ccccc1)NC(=O)CNC(=O)[C@H]1O[C@@H](O[C@H]2[C@H](OC3CC[C@@]4(C)C(CC[C@]5(C)C4C(=O)C=C4C6C[C@@](C)(C(=O)O)CC[C@]6(C)CC[C@]45C)C3(C)C)O[C@H](C(=O)NCC(=O)N[C@H](Cc3ccccc3)C(=O)OCC)[C@@H](O)[C@@H]2O)[C@H](O)[C@@H](O)[C@@H]1O` (stereo partly drawn) [Compound 16, 3-O-{2-O-[N-(β-D-Glucopyranosyluronoyl)-glycyl-L-phenylalanineethyl ester]-N-(β-D-glucopyranosyluronoyl)-glycyl-L-phenylalanineethyl ester}-(3β,20β)-11-oxo-30-noroleane-12-ene-30-acid], the inhibition at 10 µM was 63.8% with DENV2 [2] (Dengue virus) and 50 to 75% in the data set with DENV2 [1] (setting [8]).

For the compound `COC(=O)[C@@H](NC(=O)[C@H]1O[C@@H](O[C@H]2[C@H](OC3CC[C@@]4(C)C(CC[C@]5(C)C4C(=O)C=C4C6C[C@@](C)(C(=O)O)CC[C@]6(C)CC[C@]45C)C3(C)C)O[C@H](C(=O)N[C@H](C(=O)OC)C(C)C)[C@@H](O)[C@@H]2O)[C@H](O)[C@@H](O)[C@@H]1O)C(C)C` (stereo partly drawn) [Compound 2, 3-O-{2-O-[N-(β-D-Glucopyranosyluronoyl)-L-valinemethyl ester]-N-(β-D-glucopyranosyluronoyl)-L-valinemethyl ester}-(3β, 20β)-11-oxo-30-norolean-12-ene-30-oic Acid], the “CPE Reduction at 10 μM” value in the data set on DENV2 [1] (setting [7]) is given as “−”.

Take `CCOC(=O)CCNC(=O)[C@H]1O[C@@H](O[C@H]2[C@H](OC3CC[C@@]4(C)C(CC[C@]5(C)C4C(=O)C=C4C6C[C@@](C)(C(=O)O)CC[C@]6(C)CC[C@]45C)C3(C)C)O[C@H](C(=O)NCCC(=O)OCC)[C@@H](O)[C@@H]2O)[C@H](O)[C@@H](O)[C@@H]1O` (stereo partly drawn) [Compound 15, 3-O-{2-O-[N-(β-D-Glucopyranosyluronoyl)-β-alanineethyl ester]-N-(β-D-glucopyranosyluronoyl)-β-alanineethyl ester}-(3β, 20β)-11-oxo-30-noroleane-12-ene-30-acid]: the inhibition at 10 µM was 53.6% in the data set with DENV2 [2] (Dengue virus) and 25 to 50% in the data set on DENV2 [1] (setting [8]).

With `COC(=O)[C@@H](Cc1ccc(O)cc1)NC(=O)[C@H]1O[C@@H](O[C@H]2[C@H](OC3CC[C@@]4(C)C(CC[C@]5(C)C4C(=O)C=C4C6C[C@@](C)(C(=O)O)CC[C@]6(C)CC[C@]45C)C3(C)C)O[C@H](C(=O)N[C@H](Cc3ccc(O)cc3)C(=O)OC)[C@@H](O)[C@@H]2O)[C@H](O)[C@@H](O)[C@@H]1O` (stereo partly drawn) [Compound 7, 3-O-{2-O-[N-(β-D-Glucopyranosyluronoyl)-D-tyrosinemethyl ester]-N-(β-D-glucopyranosyluronoyl)-D-tyrosinemethyl ester}-(3β, 20β)-11-oxo-30-noroleane-12-ene-30-oic Acid], the inhibition at 10 µM in the data set with DENV2 [2] (Dengue virus) is 51.7%; in the data set on DENV2 [1] (DENV2, Vero C1008, read-out: CPE inhibition) it was 25 to 50%; in the data set on DENV2 [1] (setting [8]) it was 25 to 50%.

Broadly, the IC50 is the midpoint of a concentration-inhibition curve. In general, CC50 refers to the concentration that lowers cell viability or growth by half. On to `COC(=O)[C@H](Cc1ccc(O)cc1)NC(=O)[C@H]1O[C@@H](O[C@H]2[C@H](OC3CC[C@@]4(C)C(CC[C@]5(C)C4C(=O)C=C4C6C[C@@](C)(C(=O)O)CC[C@]6(C)CC[C@]45C)C3(C)C)O[C@H](C(=O)N[C@@H](Cc3ccc(O)cc3)C(=O)OC)[C@@H](O)[C@@H]2O)[C@H](O)[C@@H](O)[C@@H]1O` (stereo partly drawn) [Compound 6, 3-O-{2-O-[N-(β-D-glucopyranosyluronoyl)-L-tyrosinemethyl ester]-N-(β-D-glucopyranosyluronoyl)-L-tyrosinemethyl ester}-(3β,20β)-11-oxo-30-noroleane-12-ene-30-oic acid], for which the IC50 in the data set on DENV1 is less than 0.1 µM; with DENV2 [2] (Dengue virus, DENV2, Vero C1008, read-out: Inhibition of DENV2 Infectivity (IC50, μM), Vero E6 cells), 6 µM; with DENV2 [2] (Vero E6 cells, read-out: Inhibition of DENV2 Infectivity (IC50)), 5.98 ± 0.41 µM; in the data set on DENV2 [5] (Dengue virus), less than 0.1 µM; in the data set on DENV1 and DENV2, 0.1 to 5.98 µM. In addition, the inhibition at 10 µM in the data set with DENV2 [2] (Dengue virus) is 94%; in the data set with DENV2 [1] (setting [8]), 75 to 100%. The “Selectivity Index (CC50/ IC50)” value was more than 16.7 in the data set with DENV2 [2] (Vero E6 cells, DENV2) and more than 1000 in the data set on DENV2 [5]. In addition, the cytotoxic concentration (CC50) at 96 h in data set [3] and in data set [6] was more than 100 µM throughout. The “Stage of DENV2 replication affected (attachment, entry, post-entry modes)” value in the data set on DENV2 [4] is on record as “predominantly impeded the post-entry stage”.

For `COC(=O)[C@H](CCSC)NC(=O)[C@H]1O[C@@H](O[C@H]2[C@H](OC3CC[C@@]4(C)C(CC[C@]5(C)C4C(=O)C=C4C6C[C@@](C)(C(=O)O)CC[C@]6(C)CC[C@]45C)C3(C)C)O[C@H](C(=O)N[C@@H](CCSC)C(=O)OC)[C@@H](O)[C@@H]2O)[C@H](O)[C@@H](O)[C@@H]1O` (stereo partly drawn) [Compound 8, 3-O-{2-O-[N-(β-D-Glucopyranosyluronoyl)-L-methioninemethyl ester]-N-(β-D-glucopyranosyluronoyl)-L-methioninemethyl ester}-(3β, 20β)-11-oxo-30-noroleane-12-ene-30-oic Acid], the inhibition at 10 µM with DENV2 [2] (Dengue virus) is 51.6%; in the data set on DENV2 [1] (setting [8]), 25 to 50%.
